Our source for the IC50 values is patent US20250186456A1, “PYRIMIDINE-FUSED CYCLIC COMPOUND AND PREPARATION METHOD AND USE THEREOF” (Genfleet Therapeutics (Shanghai) Inc., priority 2021, published 2025).

Read-outs that look alike come from different tables or passages of the source.

As usually defined, the IC50 is the concentration that gives 50% inhibition.

Holding throughout (assay type): cell-based, human
Experiment [1] has as its system AsPC-1 cells (KRAS G12D mutation). The experiment can be described thus: Cell proliferation inhibition assay, 3D, CellTiter-Glo 3D, AsPC-1. The following applies: AsPC-1 3D sphere model, 5 days incubation. A digest of the protocol: (§1)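 Spheroids (800 AsPC-1 or 400 AGS cells/well; RPMI-1640 or F-12K with 10% FBS) formed overnight, then were dosed on day 2 with a 3.16-fold series at 0.1% DMSO. After 5 days, viability was read by CellTiter-Glo 3D luminescence, and IC50 came from four-parameter fits of inhibition versus DMSO control and medium blank.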
In general terms: ATP-based viability assays read luminescence as a measure of living cells.

Experiment [2] has as its system p-ERK in AGS cells (KRAS G12D mutation). The experiment can be described thus: Cell p-ERK assay (HTRF, Advance ERK phospho-T202/Y204 kit). The note with it: AGS cells, 3 hours incubation with compound, HTRF, read-out: AGS p-ERK IC50. The procedure, abridged:
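AGS cells (endogenous KRAS G12D) seeded at ~20000 cells/well overnight, then treated 3 h with 3.16-fold compound dilutions, 0.1% DMSO final. Lysates assayed for phospho-T202/Y204 ERK by HTRF after 4 h antibody incubation; inhibition vs DMSO and blank, IC50 by four-parameter fit.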

A further experiment has as its system AGS cells (KRAS G12D). In words: Cell proliferation inhibition assay, 3D, CellTiter-Glo 3D, AGS. The note with it: AGS 3D sphere model, 5 days incubation. The procedure, abridged: as §1

On to `C#Cc1c(F)ccc2cccc(-c3nc4c5c(nc(OCC67CC(=C)CN6C[C@H](F)C7)nc5c3F)N3C[C@H]5CC[C@H](N5)[C@H]3[C@H](CO)O4)c12` (stereo partly drawn) [Example Z654, ((5R,5aS,6S,9R)-2-(8-ethynyl-7-fluoronaphthalen-1-yl)-1-fluoro-12-(((2R)-2-fluoro-6-methylenetetrahydro-1H-pyrrolizin-7a (5H)-yl)methoxy)-5a,6,7,8,9,10-hexahydro-5H-4-oxa-3,10a,11,13,14-pentaaza-6,9-methanonaphtho[1,8-ab]heptalen-5-yl)methanol], for which the IC50 in experiment [1] (Homo sapiens, ASPC1, 120 h) was determined as 389 nM; in experiment [2] (Homo sapiens), 136 nM; in the experiment with AGS cells (KRAS G12D) (Homo sapiens, 120 h), 726 nM.

For `C#Cc1cccc2cc(N)cc(-c3nc4c5c(nc(OCC6(CN7CCOCC7)CC6)nc5c3F)N3C[C@@H](C)NC[C@H]3[C@H](C)O4)c12` [Example Z709, 5-ethynyl-4-((5S,5aS,8R)-1-fluoro-5,8-dimethyl-11-((1-(morpholinomethyl)cyclopropyl)methoxy)-5,5a,6,7,8,9-hexahydro-4-oxa-3,7,9a,10,12-pentaazabenzo[4,5]cyclohepta[1,2,3-de]naphthalen-2-yl) naphthalen-2-amine], the IC50 in experiment [1] (Homo sapiens, ASPC1, 120 h) worked out at 117 nM; in experiment [2] (Homo sapiens), 12.2 nM; with AGS cells (KRAS G12D) (Homo sapiens, 120 h) it was 86.8 nM.

For `C#Cc1c(F)ccc2cccc(-c3nc4c5c(nc(OCC67CC(=C)CN6CC(=C)C7)nc5c3F)N3C[C@H]5CC[C@H](N5)[C@H]3[C@H](C)O4)c12` [Example Z388, (5S,5aS,6S,9R)-12-((2,6-dimethylenetetrahydro-1H-pyrrolizin-7a (5H)-yl)methoxy)-2-(8-ethynyl-7-fluoronaphthalen-1-yl)-1-fluoro-5-methyl-5a,6,7,8,9,10-hexahydro-5H-4-oxa-3,10a, 11, 13,14-pentaaza-6,9-methanonaphtho[1,8-ab]heptalene], the IC50 in experiment [1] (Homo sapiens, ASPC1, 120 h) is 191 nM; in experiment [2] (Homo sapiens) it was 17.9 nM; with AGS cells (KRAS G12D) (Homo sapiens, 120 h), 53.1 nM.

With `C#Cc1c(F)ccc2cccc(-c3nc4c5c(nc(OC[C@]67C[C@@H](F)CN6CCC7=C)nc5c3F)N3C[C@H]5CC[C@H](N5)[C@H]3[C@H](C)O4)c12` (single isomer, unassigned) [Example Z689], the IC50 amounted to 17.4 nM in experiment [1] (Homo sapiens, ASPC1, 120 h); 6.61 nM in experiment [2] (Homo sapiens); 19.3 nM in the experiment with AGS cells (KRAS G12D) (Homo sapiens, 120 h).

With `C#Cc1c(F)ccc2cccc(-c3nc4c5c(nc(OCC67CCCN6[C@H]6C[C@H]6C7)nc5c3F)N3C[C@H]5CC[C@H](N5)[C@H]3[C@H](C)O4)c12` (stereo partly drawn) [Example Z625, (5S,5aS,6S,9R)-2-(8-Ethynyl-7-Fluoronaphthalen-1-Yl)-1-Fluoro-12-(((1aS,6aS)-Hexahydrocyclopropa[b]Pyrrolizin-Sa (3H)-Yl)Methoxy)-5-Methyl-5a,6,7,8,9,10-Hexahydro-5H-4-Oxa-3,10a,11,13,14-Pentaaza-6,9-Methanonaphtho[1,8-Ab]Heptalene], the results for the IC50 (in experiment [1]; in experiment [2]; in the experiment with AGS cells (KRAS G12D)) were 405 nM, 81.9 nM and 107 nM, respectively.

In the case of `C#Cc1cccc2cc(O)cc(-c3nc4c5c(nc(OC[C@@]67CCCN6C[C@H](F)C7)nc5c3F)N3C[C@H]5CC[C@H](N5)[C@H]3[C@H](C)O4)c12` [Example Z384, 5-ethynyl-4-((5S,5aS,6S,9R)-1-fluoro-12-(((2R,7aS)-2-fluorotetrahydro-1H-pyrrolizin-7a (5H)-yl)methoxy)-5-methyl-5a,6,7,8,9,10-hexahydro-5H-4-oxa-3,10a, 11,13,14-pentaaza-6,9-methanonaphtho[1,8-ab]heptalen-2-yl) naphthalen-2-ol], the 50% inhibitory concentration (IC50) in experiment [1] (Homo sapiens, ASPC1, 120 h) is 7.34 nM; in experiment [2] (Homo sapiens), 0.65 nM; in the experiment with AGS cells (KRAS G12D) (Homo sapiens, 120 h) it was 1.5 nM.

As for `C#Cc1c(F)ccc2cccc(-c3nc4c5c(nc(OC[C@@]67C[C@@H](F)CN6CCC7=C)nc5c3F)N3C[C@H]5CC[C@H](N5)[C@H]3[C@H](C)O4)c12` (single isomer, unassigned) [Example Z690], the IC50 worked out at 45.9 nM in experiment [1] (Homo sapiens, ASPC1, 120 h); 16.7 nM in experiment [2] (Homo sapiens); 31.5 nM in the experiment with AGS cells (KRAS G12D) (Homo sapiens, 120 h).

With `C#Cc1cccc2cc(N)cc(-c3nc4c5c(nc(OCC6(CN7CCC(F)(F)C7)CC6)nc5c3F)N3C[C@H]5CC[C@H](N5)[C@H]3[C@H](C)O4)c12` [Example Z712, 4-((5S,5aS,6S,9R)-12-((1-((3,3-difluoropyrrolidin-1-yl)methyl)cyclopropyl)methoxy)-1-fluoro-5-methyl-5a,6,7,8,9,10-hexahydro-5H-4-oxa-3,10a, 11, 13, 14-pentaaza-6,9-methanonaphtho[1,8-ab]heptalen-2-yl)-5-ethynylnaphthalen-2-amine], the IC50 came out at 30.4 nM in experiment [1] (Homo sapiens, ASPC1, 120 h); 28.2 nM in experiment [2] (Homo sapiens); 60.7 nM in the experiment on AGS cells (KRAS G12D) (Homo sapiens, 120 h).

Regarding `C#Cc1cccc2cc(N)cc(-c3nc4c5c(nc(OCC6(CN7CC[C@@H](F)C7)CC6)nc5c3F)N3C[C@H]5CC[C@H](N5)[C@H]3[C@H](C)O4)c12` [Example Z710, 5-Ethynyl-4-((5S,5aS,6S,9R)-1-Fluoro-12-((1-(((R)-3-Fluoropyrrolidin-1-Yl)Methyl)Cyclopropyl)Methoxy)-5-Methyl-5a,6,7,8,9,10-Hexahydro-5H-4-Oxa-3,10a,11,13,14-Pentaaza-6,9-Methanonaphtho[1,8-Ab]Heptalen-2-Yl) Naphthalen-2-Amine], the IC50 in experiment [1] (Homo sapiens, ASPC1, 120 h) came to 3.72 nM; in experiment [2] (Homo sapiens) it was 0.34 nM; in the experiment on AGS cells (KRAS G12D) (Homo sapiens, 120 h), 4.26 nM.

As to `C#Cc1cccc2cc(N)cc(-c3nc4c5c(nc(OC[C@@H]6C[C@@H](F)CN6C)nc5c3F)N3C[C@H]5CC[C@H](N5)[C@H]3[C@H](C)O4)c12` [Example Z732, 5-ethynyl-4-((5S,5aS,6S,9R)-1-fluoro-12-(((28,4R)-4-fluoro-1-methylpyrrolidin-2-yl)methoxy)-5-methyl-5a,6,7,8,9,10-hexahydro-5H-4-oxa-3,10a, 11, 13, 14-pentaaza-6,9-methanonaphtho[1,8-ab]heptalene-2-yl) naphthalen-2-amine], the IC50 in experiment [1] came out at 11.8 nM; in experiment [2], 2.88 nM; in the experiment on AGS cells (KRAS G12D), 10.8 nM.

`C#Cc1c(F)ccc2cccc(-c3nc4c5c(nc(OC[C@@]67CCCN6C[C@@H]6C[C@@H]67)nc5c3F)N3C[C@H]5CC[C@H](N5)[C@H]3[C@H](C)O4)c12` (single isomer, unassigned) [Example Z626-2]: the IC50 in experiment [1] (Homo sapiens, ASPC1, 120 h) amounted to 56.6 nM; in experiment [2] (Homo sapiens) it was 20.6 nM; in the experiment on AGS cells (KRAS G12D) (Homo sapiens, 120 h) it was 28.2 nM.

For `C#Cc1cccc2cc(N)cc(-c3nc4c5c(nc(OCC67CC(=C)CN6CC(F)(F)C7)nc5c3F)N3C[C@H]5CC[C@H](N5)[C@H]3[C@H](C)O4)c12` (stereo partly drawn) [Example Z711, 4-((5S,5aS,6S,9R)-12-((2,2-difluoro-6-methylenetetrahydro-1H-pyrrolizin-7a (5H)-yl)methoxy)-1-fluoro-5-methyl-5a,6,7,8,9,10-hexahydro-5H-4-oxa-3,10a,11,13,14-pentaaza-6,9-methanonaphtho[1,8-ab]heptalen-2-yl)-5-ethynylnaphthalen-2-amine], the IC50 in experiment [1] (Homo sapiens, ASPC1, 120 h) was 85.6 nM; in experiment [2] (Homo sapiens) it was 13.3 nM; in the experiment with AGS cells (KRAS G12D) (Homo sapiens, 120 h), 54.2 nM.

For `C#Cc1c(F)ccc2cccc(-c3nc4c5c(nc(OCC67CCCN6CCC7=C(F)F)nc5c3F)N3C[C@H]5CC[C@H](N5)[C@H]3[C@H](C)O4)c12` (stereo partly drawn) [Example Z612, (5S,5aS,6S,9R)-12-((1-(difluoromethylene)tetrahydro-1H-pyrrolizin-7a (5H)-yl)methoxy)-2-(8-ethynyl-7-fluoronaphthalen-1-yl)-1-fluoro-5-methyl-5a,6,7,8,9,10-hexahydro-5H-4-oxa-3,10a, 11,13,14-pentaaza-6,9-methanonaphtho[1,8-ab]heptalene], the IC50 in experiment [1] (Homo sapiens, ASPC1, 120 h) is 124 nM; in experiment [2] (Homo sapiens) it was 99.3 nM; in the experiment on AGS cells (KRAS G12D) (Homo sapiens, 120 h), 65.4 nM.

For `C#Cc1cccc2cccc(-c3nc4c5c(nc(OCC67CC(=C)CN6CC(=C)C7)nc5c3F)N3C[C@H]5CC[C@H](N5)[C@H]3[C@H](C)O4)c12` [Example Z551, (58,5aS,6S,9R)-12-((2,6-dimethylenetetrahydro-1H-pyrrolizin-7a (5H)-yl)methoxy)-2-(8-ethynylnaphthalen-1-yl)-1-fluoro-5-methyl-5a,6,7,8,9,10-hexahydro-5H-4-oxa-3,10a,11,13,14-pentaaza-6,9-methanonaphtho[1,8-ab]heptalene], the IC50 in experiment [1] (Homo sapiens, ASPC1, 120 h) is 170 nM; in experiment [2] (Homo sapiens) it was 61 nM; in the experiment on AGS cells (KRAS G12D) (Homo sapiens, 120 h), 45.4 nM.

In the case of `C#Cc1cccc2c(F)c(N)cc(-c3nc4c5c(nc(OCC67C[C@@H](F)CN6CCC7=C)nc5c3F)N3C[C@H]5CC[C@H](N5)[C@H]3[C@H](C)O4)c12` (stereo partly drawn) [Example Z728, 5-ethynyl-1-fluoro-4-((5S,5aS,6S,9R)-1-fluoro-12-(((6R)-6-fluoro-1-methylenetetrahydro-1H-pyrrolizin-7a (5H)-yl)methoxy)-5-methyl-5a,6,7,8,9,10-hexahydro-5H-4-oxa-3,10a, 11, 13,14-pentaaza-6,9-methanonaphtho[1,8-ab]heptalene-2-yl) naphthalen-2-amine], the IC50 in experiment [1] (Homo sapiens, ASPC1, 120 h) amounted to 5.41 nM; in experiment [2] (Homo sapiens) it was 0.95 nM; with AGS cells (KRAS G12D) (Homo sapiens, 120 h) it was 3.75 nM.

Turning to `C#Cc1cccc2cccc(-c3nc4c5c(nc(OC[C@@]67CCCN6C[C@H](F)C7)nc5c3F)N3C[C@H]5CC[C@H](N5)[C@H]3[C@H](C)O4)c12` [Example Z360-1, (5S,5aS,6S,9R)-2-(8-ethynylnaphthalen-1-yl)-1-fluoro-12-(((2R,7aS)-2-fluorotetrahydro-1H-pyrrolizin-7a (5H)-yl)methoxy)-5-methyl-5a,6,7,8,9,10-hexahydro-5H-4-oxa-3,10a, 11,13,14-pentaaza-6,9-methanonaphtho[1,8-ab]heptalene], the IC50 stood at 36.4 nM in experiment [1] (Homo sapiens, ASPC1, 120 h); 29.9 nM in experiment [2] (Homo sapiens); 27.8 nM with AGS cells (KRAS G12D) (Homo sapiens, 120 h).
